The results in this text go back to patent publication US8143411B2, “Substituted 6-phenylnicotinic acids and their use” (Bayer Animal Health GmbH, priority 2007, dated 2012).

This experiment has as its target T1, human PPARα receptor (Homo sapiens, UniProt Q07869).
T1 construct: expressed in transfected cells
T1 sequence (Q07869 167-468): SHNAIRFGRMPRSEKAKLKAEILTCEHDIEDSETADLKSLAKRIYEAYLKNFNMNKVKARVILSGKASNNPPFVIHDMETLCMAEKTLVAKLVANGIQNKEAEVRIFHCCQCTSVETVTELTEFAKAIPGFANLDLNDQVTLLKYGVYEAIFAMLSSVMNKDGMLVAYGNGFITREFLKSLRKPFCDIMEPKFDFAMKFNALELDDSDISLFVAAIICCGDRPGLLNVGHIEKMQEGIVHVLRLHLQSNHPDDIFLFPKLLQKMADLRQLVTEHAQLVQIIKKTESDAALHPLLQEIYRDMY
Kind of experiment: Cellular transactivation assay (GAL4-PPARα chimera, luciferase reporter). The settings on record: CHO cells stably expressing GAL4-PPARα chimera (human PPARα ligand binding domain) and luciferase reporter; 6 h stimulation. Format: cell-based. The source says: A cellular assay is used to identify activators of the peroxisome proliferator-activated receptor alpha (PPAR-alpha).
Since mammalian cells contain different endogenous nuclear receptors which may complicate an unambiguous interpretation of the results, an established chimera system is used in which the ligand binding domain of the human PPARα receptor is fused to the DNA binding domain of the yeast transcription factor GAL4. The resulting GAL4-PPARα chimera is co-transfected and stably expressed in CHO cells having a reporter construct.
The GAL4-PPARα expression construct contains the ligand binding domain of PPARα (amino acids 167-468) which is PCR-amplified and cloned into the vector pcDNA3.1. This vector already contains the GAL4 DNA binding domain (amino acids 1-147) of the vector pFC2-dbd (Stratagene). The reporter construct, which contains five copies of the GAL4 binding site upstream of a thymidine kinase promoter, expresses firefly luciferase (Photinus pyralis) following activation and binding of GAL4-PPARα.
The day before the test, CHO (Chinese hamster ovary) cells which stably express the GAL4-PPARα chimera described above and the luciferase reporter gene construct are plated in medium (Optimem, GIBCO), 2% activated carbon-purified fetal calf serum (Hyclone), 1.35 mM sodium pyruvate (GIBCO), 0.2% sodium bicarbonate (GIBCO) with 1×10^3 cells in 96-well microtiter plates and kept in a cell incubator (96% atmospheric humidity, 5% v/v CO2, 37° C.). On the day of the test, the substances to be tested are taken up in the medium mentioned above but without added calf serum) and added to the cells. After a stimulation period of 6 h, the luciferase activity is measured using a video camera. The relative light units measured give, as a function of the substance concentration, a sigmoidal stimulation curve. The EC50 values are calculated using the computer programme GraphPad PRISM (Version 3.02).

Where a name gives a salt, the structure may show the parent alone.

Take `Cc1ccc(-c2cc(C(F)(F)F)c(C(=O)O)c(CC(C)C)n2)cc1F` [Example 2, 6-(3-Fluoro-4-methylphenyl)-2-isobutyl-4-(trifluoromethyl)nicotinic acid sodium salt]: the concentration giving a half-maximal response (EC50) came to 11 nM.
In the case of `Cc1ccc(-c2cc(C(F)(F)F)c(C(=O)O)c(NC(C)C)n2)cc1F` [Example 7, 6-(3-Fluoro-4-methylphenyl)-2-(isopropylamino)-4-(trifluoromethyl)nicotinic acid], the concentration giving a half-maximal response (EC50) is 83 nM.
With `O=C(O)c1c(C(F)(F)F)cc(-c2ccc(Cl)cc2)nc1NCC1CC1` [Example 22, 6-(4-Chlorophenyl)-2-[(cyclopropylmethyl)amino]-4-(trifluoromethyl)nicotinic acid] the figure was 100 nM.
Consider `CCOc1nc(-c2ccc(C)c(F)c2)cc(C(F)(F)F)c1C(=O)O` [Example 34, 2-Ethoxy-6-(3-fluoro-4-methylphenyl)-4-(trifluoromethyl)nicotinic acid], for which the EC50 was found to be 95 nM.
`Cc1ccc(-c2cc(C(F)(F)F)c(C(=O)O)c(OC(C)C3CCCCC3)n2)cc1F` (centres unmarked) [Example 42, 2-(1-Cyclohexylethoxy)-6-(3-fluoro-4-methylphenyl)-4-(trifluoromethyl)nicotinic acid] gave an EC50 of 120 nM.
As for `COCCN(C)c1nc(-c2ccc(C)c(F)c2)cc(C(F)(F)F)c1C(=O)O` [Example 47, 6-(3-Fluoro-4-methylphenyl)-2-[(2-methoxyethyl)(methyl)amino]-4-(trifluoromethyl)nicotinic acid hydrochloride], the concentration giving a half-maximal response (EC50) was found to be 180 nM. Against the preceding compound, the EC50 is about 1.5-fold higher.
With `CC(C)CCOc1nc(-c2cc(F)cc(F)c2)cc(C(F)(F)F)c1C(=O)O` [Example 49, 6-(3,5-Difluorophenyl)-2-(3-methylbutoxy)-4-(trifluoromethyl)nicotinic acid] the figure was 42 nM; with `CCc1nc(-c2ccc(Cl)cc2)cc(CC(C)C)c1C(=O)O` [Example 51, 6-(4-Chlorophenyl)-2-ethyl-4-isobutyl-nicotinic acid], 24 nM; with `CC(C)(C)CCOc1nc(-c2ccc(Br)cc2)cc(C(F)(F)F)c1C(=O)O` [Example 67, 6-(4-Bromophenyl)-2-(3,3-dimethylbutoxy)-4-(trifluoromethyl)nicotinic acid], 182 nM.
Turning to `CCOc1cc(-c2ccc(Cl)cc2)nc(C(C)C)c1C(=O)O` [Example 71, 6-(4-Chlorophenyl)-4-ethoxy-2-(1-methylethyl)nicotinic acid sodium salt], a half-maximal response (EC50) required 86 nM.
`CC(C)Cc1nc(-c2ccc(Cl)cc2)cc(C(F)(F)F)c1C(=O)O` [Example 77, 6-(4-Chlorophenyl)-2-isobutyl-4-(trifluoromethyl)nicotinic acid sodium salt] gave a 50% effective concentration (EC50) of 13 nM.

Broadly, the EC50 is the midpoint of the concentration-response curve. A low value points to greater potency.
